Data from article PMC11227529, “An in-situ peptide-antibody self-assembly to block CD47 and CD24 signaling enhances macrophage-mediated phagocytosis and anti-tumor immune responses” (Nature Communications, 2024).
Where two headings read alike, the source gives them in different places.

Assays:
[1] = tested on: PAN02 subcutaneous tumor; type: in vivo, mouse
Excerpt: (§1) After the intravenous administration of free Cy5.5, ^Cy5.5SAMIs, and ^Cy5.5PAC-SABIs, the mice were euthanized at the 48-h mark, and the heart, liver, spleen, lung, kidney, and tumor were harvested for ex vivo imaging (Fig. 5e, f). […] Despite the observed retention in metabolic organs such as the liver and kidney, distinct variations in tissue distribution were noted between ^Cy5.5SAMIs and ^Cy5.5PAC-SABIs (Fig. 5e, f and Supplementary Fig. 30). Specifically, ^Cy5.5PAC-SABIs achieved a marked selective enrichment in both BC and PC tumors. […] The discernible dissimilarity between these two molecules could be attributed to the presence of targeted ligands and EISA, which augmented the precise recognition of ^Cy5.5PAC-SABIs toward cancer cells and facilitated their proficient molecular assembly. To further observe the distribution of ^Cy5.5PAC-SABIs in the BC and PC tissues, we analyzed the Cy5.5 fluorescence of tumor sections. […] Moreover, we employed SEM imaging to visualize the in situ self-assembly morphology of PAC-SABIs.
(§2) To obtain breast and pancreatic subcutaneous xenografts, 1 × 10^6 4T1 or PAN02 cells were implanted into the right hind limb of BALB/c and C57BL/6 mice, respectively. When the tumor size reached ≈ 50 mm^3, mice were randomly sorted into free Cy5.5, ^Cy5.5SAMIs, and ^Cy5.5PAC-SABIs groups. The 4T1 and PAN02 tumor-bearing mice were correspondingly intravenously injected with free Cy5.5, ^Cy5.5SAMIs, and ^Cy5.5PAC-SABIs (the dose of Cy5.5 was 1 mg/kg) for in vivo fluorescence imaging with IVIS system (Perkin Elmer, USA). Then, the mice were sacrificed to collect the major organs (heart, liver, spleen, lung, and kidney) and tumors for ex vivo fluorescence imaging. Finally, the 4T1 and PAN02 tumors were embedded in Tissue-Tek OCT compound (Sakura, Japan), and cryosections of 8 µm thickness were prepared. The Cy5.5 signal was detected using a fluorescence microscope (Nikon, Japan).
(§3) Supplementary Fig. 30 Quantification analysis of the ex vivo NIR fluorescence intensity in tumors and major organs. a Quantitative calculation of average fluorescence signal in 4T1 tumor and major organ area. The error bars represent the mean ± SD (n = 3 mice; ****p < 0.0001; the p value was analyzed by a two-tailed unpaired Student’s t-test).b Quantitative calculation of average fluorescence signal in PAN02 tumor and major organ area. The error bars represent the mean ± SD (n = 3 mice; ****p < 0.0001; the p value was analyzed by a two-tailed unpaired Student’s t-test).Source data are provided as a Source Data file.
(§4) (1 picture or pasted object on this page, not shown here)

[2] = tested on: 4T1 subcutaneous tumor; experiment: Ex vivo NIR fluorescence of tumor and major organs, 48 h; type: in vivo, mouse
Excerpt: as §1, §2, §3, §4

cyanine 5.5 [free Cy5.5]
Average radiant efficiency ([1]; Heart, PAN02 model, replicate 1): 0.069 × 10^3 P/Sec | Average radiant efficiency ([1]; Heart, PAN02 model, replicate 2): 0.108 × 10^3 P/Sec | Average radiant efficiency ([1]; Heart, PAN02 model, replicate 3): 0.122 × 10^3 P/Sec | Average radiant efficiency ([1]; Kidney, PAN02 model, replicate 1): 0.064 × 10^3 P/Sec | Average radiant efficiency ([1]; Kidney, PAN02 model, replicate 2): 0.137 × 10^3 P/Sec | Average radiant efficiency ([1]; Kidney, PAN02 model, replicate 3): 0.152 × 10^3 P/Sec | Average radiant efficiency ([1]; Liver, PAN02 model, replicate 1): 0.094 × 10^3 P/Sec | Average radiant efficiency ([1]; Liver, PAN02 model, replicate 2): 0.126 × 10^3 P/Sec | Average radiant efficiency ([1]; Liver, PAN02 model, replicate 3): 0.145 × 10^3 P/Sec | Average radiant efficiency ([1]; Lung, PAN02 model, replicate 1): 0.056 × 10^3 P/Sec | Average radiant efficiency ([1]; Lung, PAN02 model, replicate 2): 0.103 × 10^3 P/Sec | Average radiant efficiency ([1]; Lung, PAN02 model, replicate 3): 0.159 × 10^3 P/Sec | Average radiant efficiency ([1]; PAN02 tumor, replicate 1): 0.125 × 10^3 P/Sec | Average radiant efficiency ([1]; PAN02 tumor, replicate 2): 0.056 × 10^3 P/Sec | Average radiant efficiency ([1]; PAN02 tumor, replicate 3): 0.141 × 10^3 P/Sec | Average radiant efficiency ([1]; Spleen, PAN02 model, replicate 1): 0.046 × 10^3 P/Sec | Average radiant efficiency ([1]; Spleen, PAN02 model, replicate 2): 0.093 × 10^3 P/Sec | Average radiant efficiency ([1]; Spleen, PAN02 model, replicate 3): 0.157 × 10^3 P/Sec | ex vivo NIR fluorescence accumulation ([2]; 4T1 and PAN02 tumor-bearing mice, 48 h after i.v. injection, tumors and major organs): negligible accumulation in the tumors and major organs | Average radiant efficiency ([2]; 4T1 tumor, replicate 1): 0.156 × 10^3 P/Sec | Average radiant efficiency ([2]; 4T1 tumor, replicate 2): 0.054 × 10^3 P/Sec | Average radiant efficiency ([2]; 4T1 tumor, replicate 3): 0.174 × 10^3 P/Sec | Average radiant efficiency ([2]; Heart, 4T1 model, replicate 1): 0.085 × 10^3 P/Sec | Average radiant efficiency ([2]; Heart, 4T1 model, replicate 2): 0.174 × 10^3 P/Sec | Average radiant efficiency ([2]; Heart, 4T1 model, replicate 3): 0.168 × 10^3 P/Sec | Average radiant efficiency ([2]; Kidney, 4T1 model, replicate 1): 0.115 × 10^3 P/Sec | Average radiant efficiency ([2]; Kidney, 4T1 model, replicate 2): 0.12 × 10^3 P/Sec | Average radiant efficiency ([2]; Kidney, 4T1 model, replicate 3): 0.073 × 10^3 P/Sec | Average radiant efficiency ([2]; Liver, 4T1 model, replicate 1): 0.118 × 10^3 P/Sec | Average radiant efficiency ([2]; Liver, 4T1 model, replicate 2): 0.061 × 10^3 P/Sec | Average radiant efficiency ([2]; Liver, 4T1 model, replicate 3): 0.22 × 10^3 P/Sec | Average radiant efficiency ([2]; Lung, 4T1 model, replicate 1): 0.137 × 10^3 P/Sec | Average radiant efficiency ([2]; Lung, 4T1 model, replicate 2): 0.09 × 10^3 P/Sec | Average radiant efficiency ([2]; Lung, 4T1 model, replicate 3): 0.095 × 10^3 P/Sec | Average radiant efficiency ([2]; Spleen, 4T1 model, replicate 1): 0.157 × 10^3 P/Sec | Average radiant efficiency ([2]; Spleen, 4T1 model, replicate 2): 0.112 × 10^3 P/Sec | Average radiant efficiency ([2]; Spleen, 4T1 model, replicate 3): 0.069 × 10^3 P/Sec
